Measurements published in ChEMBL document CHEMBL5360656, “Structure-Based Design of Transport-Specific Multitargeted One-Carbon Metabolism Inhibitors in Cytosol and Mitochondria” (J Med Chem, 2023).
The source made the active and inactive calls. No cut-off for these calls is given here.

Columns and labels:
KB = assay: Antitumor activity against human KB cells assessed as inhibition of cell growth measured upto 96 hrs in presence of adenosine by Cell titer blue assay; type: functional, cell-based
CHO = assay: cells; details: Cricetulus griseus, 96 h

SMILES	Activity (KB)	IC50 (CHO) [µM]
Nc1nc2[nH]c(CCCc3ccc(C(=O)N[C@@H](CCC(=O)O)C(=O)O)s3)cc2c(=O)[nH]1	inactive	–
Nc1nc2[nH]cc(CCc3ccc(C(=O)N[C@@H](CCC(=O)O)C(=O)O)cc3)c2c(=O)[nH]1 [PEMETREXED]	–	0.06
